According to BindingDB's records for doi:10.1016/j.bmcl.2009.08.049 (Genentech, 2009):

These molecules were tested against Sonic hedgehog protein (Mus musculus, UniProt Q62226) (assay: Inhibition of SHH in mouse C3H10T1/2 cells by Gli-luciferase reporter gene assay).
Chain of Sonic hedgehog protein (Q62226 25-198 limits assumed): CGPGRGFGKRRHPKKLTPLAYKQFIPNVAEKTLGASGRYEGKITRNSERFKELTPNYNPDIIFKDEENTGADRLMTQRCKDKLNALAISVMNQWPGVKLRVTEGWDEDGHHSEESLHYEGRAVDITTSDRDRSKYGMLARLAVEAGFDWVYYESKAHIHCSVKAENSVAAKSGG
Molecule `Cc1nc(C(F)(F)F)ccc1C(=O)Nc1ccc(Cl)c(-c2cc3ccccc3[nH]2)c1` [N-(4-chloro-3-(1H-indol-2-yl)phenyl)-2-methyl-6-(trifluoromethyl)nicotinamide] has an IC50 of 500 nM.
`Cc1nc(C(F)(F)F)ccc1C(=O)Nc1ccc(Cl)c(-c2cc3ccccn3c2)c1` [N-(4-chloro-3-(indolizin-2-yl)phenyl)-2-methyl-6-(trifluoromethyl)nicotinamide] showed an IC50 of 4200 nM.
Work on `Cc1nc(C(F)(F)F)ccc1C(=O)Nc1ccc(Cl)c(-c2cc[nH]n2)c1` [N-(4-chloro-3-(1H-pyrazol-3-yl)phenyl)-2-methyl-6-(trifluoromethyl)nicotinamide] yielded an IC50 of 9000 nM.
For `Cc1ccc(C(=O)Nc2ccc(Cl)c(-c3ccccn3)c2)c(C)n1` [N-(4-chloro-3-(pyridin-2-yl)phenyl)-2,6-dimethylnicotinamide], the IC50 was 130 nM.
Work on `O=C(Nc1ccc(Cl)c(-c2ccccn2)c1)c1ccc(Cl)cc1` [4-chloro-N-(4-chloro-3-(pyridin-2-yl)phenyl)benzamide] yielded an IC50 of 1500 nM.
In the case of `Cc1nc(C(F)(F)F)ccc1C(=O)Nc1ccc(Cl)c(-c2cnccn2)c1` [N-(4-chloro-3-(pyrazin-2-yl)phenyl)-2-methyl-6-(trifluoromethyl)nicotinamide], the IC50 is reported as 1700 nM.
With `Cc1c[nH]c(-c2cc(NC(=O)c3ccc(C(F)(F)F)nc3C)ccc2Cl)n1` [N-(4-chloro-3-(5-methyl-1H-imidazol-2-yl)phenyl)-2-methyl-6-(trifluoromethyl)nicotinamide] the IC50 was 256 nM.
With `Cc1nc(C(F)(F)F)ccc1C(=O)Nc1ccc(Cl)c(-c2ncccn2)c1` [N-(4-chloro-3-(pyrimidin-2-yl)phenyl)-2-methyl-6-(trifluoromethyl)nicotinamide] the IC50 was 8000 nM.
Work on `Cc1nc(C(F)(F)F)ccc1C(=O)Nc1ccc(Cl)c(-c2nc3ccccc3n2C)c1` [N-(4-chloro-3-(1-methyl-1H-benzo[d]imidazol-2-yl)phenyl)-2-methyl-6-(trifluoromethyl)nicotinamide] yielded an IC50 of 9 nM.
With `Cc1nc(C(F)(F)F)ccc1C(=O)Nc1ccc(Cl)c(C(=O)Nc2ccccc2)c1` [N-(4-chloro-3-(phenylcarbamoyl)phenyl)-2-methyl-6-(trifluoromethyl)nicotinamide] the IC50 was 140 nM.
For `Cc1nc(C(F)(F)F)ccc1C(=O)Nc1ccc(Cl)c(-c2cccnc2)c1` [N-(4-chloro-3-(pyridin-3-yl)phenyl)-2-methyl-6-(trifluoromethyl)nicotinamide], the IC50 was 10000 nM.
For `O=C(Nc1ccc(Cl)c(-c2ccccn2)c1)c1cccc(Cl)c1` [3-chloro-N-(4-chloro-3-(pyridin-2-yl)phenyl)benzamide], the IC50 was 1500 nM.
In the case of `Cc1nc(C(F)(F)F)ccc1C(=O)Nc1ccc(Cl)c(-c2ccn(C)n2)c1` [N-(4-chloro-3-(1-methyl-1H-pyrazol-3-yl)phenyl)-2-methyl-6-(trifluoromethyl)nicotinamide], the IC50 is reported as 550 nM.
Molecule `Cc1nc(C(F)(F)F)ccc1C(=O)Nc1ccc(Cl)c(-c2cnc3ccccc3n2)c1` [N-(4-chloro-3-(quinoxalin-2-yl)phenyl)-2-methyl-6-(trifluoromethyl)nicotinamide] has an IC50 of 52 nM.
With `CS(=O)(=O)c1ccc(C(=O)Nc2ccc(Cl)c(-c3ccccn3)c2)cc1` [N-(4-chloro-3-(pyridin-2-yl)phenyl)-4-(methylsulfonyl)benzamide] the IC50 was 40 nM.
With `Cc1nc(C(F)(F)F)ccc1C(=O)Nc1ccc(Cl)c(-n2cccn2)c1` [N-(4-chloro-3-(1H-pyrazol-1-yl)phenyl)-2-methyl-6-(trifluoromethyl)nicotinamide] the IC50 was 450 nM.
For `Cc1nc(C(F)(F)F)ccc1C(=O)Nc1ccc(Cl)c(-c2nc3ccccc3[nH]2)c1` [N-(3-(1H-benzo[d]imidazol-2-yl)-4-chlorophenyl)-2-methyl-6-(trifluoromethyl)nicotinamide], the IC50 was 12 nM.
With `Cc1nc(C(F)(F)F)ccc1C(=O)Nc1ccc(Cl)c(-c2ccncc2)c1` [N-(4-chloro-3-(pyridin-4-yl)phenyl)-2-methyl-6-(trifluoromethyl)nicotinamide] the IC50 was 2400 nM.
Molecule `Cc1nc(C(F)(F)F)ccc1C(=O)Nc1ccc(Cl)c(-c2nc3c(n2C)CCCC3)c1` [N-(4-chloro-3-(1-methyl-4,5,6,7-tetrahydro-1H-benzo[d]imidazol-2-yl)phenyl)-2-methyl-6-(trifluoromethyl)nicotinamide] has an IC50 of 150 nM.
For `O=C(Nc1ccc(Cl)c(-c2ccccn2)c1)c1ccccc1` [N-(4-chloro-3-(pyridin-2-yl)phenyl)benzamide], the IC50 was 800 nM.
`O=C(Nc1ccc(Cl)c(-c2ccccn2)c1)c1cccnc1` [N-(4-chloro-3-(pyridin-2-yl)phenyl)nicotinamide] showed an IC50 of 600 nM.
`Cc1nc(C(F)(F)F)ccc1C(=O)Nc1ccc(Cl)c(-c2cn3ccsc3n2)c1` [N-(4-chloro-3-(imidazo[2,1-b]thiazol-6-yl)phenyl)-2-methyl-6-(trifluoromethyl)nicotinamide] gave an IC50 of 200 nM.
Work on `Cc1nc(C(F)(F)F)ccc1C(=O)Nc1ccc(Cl)c(-c2cc3ccccn3n2)c1` [N-(4-chloro-3-(pyrazolo[1,5-a]pyridin-2-yl)phenyl)-2-methyl-6-(trifluoromethyl)nicotinamide] yielded an IC50 of 170 nM.
`CS(=O)(=O)c1cccc(C(=O)Nc2ccc(Cl)c(-c3ccccn3)c2)c1` [N-(4-chloro-3-(pyridin-2-yl)phenyl)-3-(methylsulfonyl)benzamide] gave an IC50 of 120 nM.
`O=C(Nc1ccc(Cl)c(-c2ccccn2)c1)c1ccccc1Cl` [2-chloro-N-(4-chloro-3-(pyridin-2-yl)phenyl)benzamide] showed an IC50 of 110 nM.
For `Cc1nc(C(F)(F)F)ccc1C(=O)Nc1ccc(Cl)c(-c2nc3ccccc3s2)c1` [N-(3-(benzo[d]thiazol-2-yl)-4-chlorophenyl)-2-methyl-6-(trifluoromethyl)nicotinamide], the IC50 was 70 nM.
`Cc1nc(C(F)(F)F)ccc1C(=O)Nc1ccc(Cl)c(-c2ccccn2)c1` [N-(4-chloro-3-(pyridin-2-yl)phenyl)-2-methyl-6-(trifluoromethyl)nicotinamide] was tested, and the IC50 was 42 nM.
For `O=C(Nc1ccc(Cl)c(-c2ccccn2)c1)c1ccccn1` [N-(4-chloro-3-(pyridin-2-yl)phenyl)picolinamide], the IC50 was 3000 nM.
For `O=C(Nc1ccc(Cl)c(-c2ccccn2)c1)c1ccncc1` [N-(4-chloro-3-(pyridin-2-yl)phenyl)isonicotinamide], the IC50 was 700 nM.
In the case of `Cc1nc(C(F)(F)F)ccc1C(=O)Nc1ccc(Cl)c(-n2cc3ccccc3n2)c1` [N-(4-chloro-3-(2H-indazol-2-yl)phenyl)-2-methyl-6-(trifluoromethyl)nicotinamide], the IC50 is reported as 80 nM.
